Results as given in PubChem BioAssay AID1845202 (Molecular Pharmacology Branch, DTP, NCI, 2023).

Test system: DMS 114 tumor spheroids, viability % test/control
Test: Anticancer human tumor DMS 114 cell line growth inhibition;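 note: spheroids exposed to compounds for 7 days before read-out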;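 for viability, T/C: luminescence used as a proxy for viable cells; 100% = DMSO vehicle control viability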
Settings: spheroids with HUVEC and MSC; for IC50: curve of first compound; for viability, T/C: stronger effect = lower value
Method in brief: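 Complex tumor spheroids combined malignant cells with endothelial cells and mesenchymal stem cells. DNA-damaging drugs and DNA repair inhibitors were tested alone and in combination, at half-log dilutions down from clinical Cmax (top 10 microM if Cmax unknown), 0.25% DMSO final.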

[1] = second compound 30 pM, first compound 0.0316 µM
[2] = second compound 30 pM, first compound 0.1 µM
[3] = second compound 30 pM, first compound 0.316 µM
[4] = second compound 30 pM, first compound 1 µM
[5] = second compound 30 pM, first compound 3.16 µM
[6] = second compound 30 pM, first compound 10 µM
[7] = second compound 94.9 pM, first compound 0.0316 µM
[8] = second compound 94.9 pM, first compound 0.1 µM
[9] = second compound 94.9 pM, first compound 0.316 µM
[10] = second compound 94.9 pM, first compound 1 µM
[11] = second compound 94.9 pM, first compound 3.16 µM
[12] = second compound 94.9 pM, first compound 10 µM
[13] = second compound 0.0003 µM, first compound 0.0316 µM
[14] = second compound 0.0003 µM, first compound 0.1 µM
[15] = second compound 0.0003 µM, first compound 0.316 µM
[16] = second compound 0.0003 µM, first compound 1 µM
[17] = second compound 0.0003 µM, first compound 3.16 µM
[18] = second compound 0.0003 µM, first compound 10 µM
[19] = second compound 0.000949 µM, first compound 0.0316 µM
[20] = second compound 0.000949 µM, first compound 0.1 µM
[21] = second compound 0.000949 µM, first compound 0.316 µM
[22] = second compound 0.000949 µM, first compound 1 µM
[23] = second compound 0.000949 µM, first compound 3.16 µM
[24] = second compound 0.000949 µM, first compound 10 µM
[25] = second compound 0.003 µM, first compound 0.0316 µM
[26] = second compound 0.003 µM, first compound 0.1 µM
[27] = second compound 0.003 µM, first compound 0.316 µM
[28] = second compound 0.003 µM, first compound 1 µM
[29] = second compound 0.003 µM, first compound 3.16 µM
[30] = second compound 0.003 µM, first compound 10 µM

SMILES | IC50 (second compound 30 pM) [nM] | IC50 (second compound 94.9 pM) [nM] | IC50 (second compound 0.0003 µM) [nM] | IC50 (second compound 0.000949 µM) [nM] | IC50 (second compound 0.003 µM) [nM] | viability, T/C [1] [%] | viability, T/C [2] [%] | viability, T/C [3] [%] | viability, T/C [4] [%] | viability, T/C [5] [%] | viability, T/C [6] [%] | viability, T/C [7] [%] | viability, T/C [8] [%] | viability, T/C [9] [%] | viability, T/C [10] [%] | viability, T/C [11] [%] | viability, T/C [12] [%] | viability, T/C [13] [%] | viability, T/C [14] [%] | viability, T/C [15] [%] | other results
CC1COCCN1c1cc(-c2ccnn2C)c2ccnc(-c3ccn[nH]3)c2n1 (stereo not given) + COc1cc2c(cc1O)CCNC21CSC2c3c(OC(C)=O)c(C)c4c(c3C(COC1=O)N1C(O)C3Cc5cc(C)c(OC)c(O)c5C(C21)N3C)OCO4 | < 31.6 | < 31.6 | < 31.6 | < 31.6 | < 31.6 | 28.2 | 21.9 | 17.3 | 11.8 | 7.86 | 10.1 | 17.6 | 15.9 | 12.1 | 9.53 | 6.98 | 8.67 | 9.96 | 7.98 | 7.58 | viability, T/C [16]: 5.84%; viability, T/C [17]: 4.87%; viability, T/C [18]: 5.28%; viability, T/C [19]: 1.57%; viability, T/C [20]: 1.39%; viability, T/C [21]: 1.26%; viability, T/C [22]: 0.89%; viability, T/C [23]: 1.12%; viability, T/C [24]: 0.45%; viability, T/C [25]: 0.2%; viability, T/C [26]: 0.22%; viability, T/C [27]: 0.15%; viability, T/C [28]: 0.15%; viability, T/C [29]: 0.12%; viability, T/C [30]: 0.22%
COc1cc(C)[nH]c(=O)c1CN1CCc2c(Cl)cc(C(OC)C3COC3)c(Cl)c2C1=O (stereo not given) + COc1cc2c(cc1O)CCNC21CSC2c3c(OC(C)=O)c(C)c4c(c3C(COC1=O)N1C(O)C3Cc5cc(C)c(OC)c(O)c5C(C21)N3C)OCO4 | > 10000 | > 10000 | < 31.6 | < 31.6 | < 31.6 | 118 | 90.5 | 83.5 | 82.1 | 74.8 | 69.6 | 89.1 | 85.9 | 86.7 | 66.2 | 65.1 | 56 | 38.9 | 43.3 | 41.4 | viability, T/C [16]: 34.7%; viability, T/C [17]: 28.9%; viability, T/C [18]: 26.6%; viability, T/C [19]: 2.76%; viability, T/C [20]: 4.07%; viability, T/C [21]: 4.68%; viability, T/C [22]: 3.28%; viability, T/C [23]: 2.76%; viability, T/C [24]: 1.64%; viability, T/C [25]: 0.25%; viability, T/C [26]: 0.27%; viability, T/C [27]: 0.26%; viability, T/C [28]: 0.24%; viability, T/C [29]: 0.24%; viability, T/C [30]: 0.29%
Cc1cc(C)c(CNC(=O)c2cc(-c3ccc(CN4CCOCC4)cc3)cc3c2cnn3C2CCCC2)c(=O)[nH]1 + COc1cc2c(cc1O)CCNC21CSC2c3c(OC(C)=O)c(C)c4c(c3C(COC1=O)N1C(O)C3Cc5cc(C)c(OC)c(O)c5C(C21)N3C)OCO4 | > 10000 | > 10000 | < 31.6 | < 31.6 | < 31.6 | 112 | 100 | 104 | 113 | 115 | 73.2 | 113 | 108 | 112 | 102 | 98.6 | 52.1 | 40.1 | 35.8 | 48.1 | viability, T/C [16]: 38.8%; viability, T/C [17]: 41.4%; viability, T/C [18]: 35.6%; viability, T/C [19]: 2.74%; viability, T/C [20]: 3.63%; viability, T/C [21]: 3.61%; viability, T/C [22]: 3.83%; viability, T/C [23]: 3.94%; viability, T/C [24]: 4.03%; viability, T/C [25]: 0.31%; viability, T/C [26]: 0.33%; viability, T/C [27]: 0.32%; viability, T/C [28]: 0.44%; viability, T/C [29]: 0.34%; viability, T/C [30]: 0.4%
[2H]c1nc(C)nc([2H])c1-c1cc(NC[C@@H](C)c2cccc3c(C(=O)NC)ccnc23)ncn1 + COc1cc2c(cc1O)CCNC21CSC2c3c(OC(C)=O)c(C)c4c(c3C(COC1=O)N1C(O)C3Cc5cc(C)c(OC)c(O)c5C(C21)N3C)OCO4 | > 10000 | > 10000 | < 31.6 | < 31.6 | < 31.6 | 105 | 113 | 106 | 109 | 107 | 97.6 | 111 | 107 | 108 | 111 | 98.3 | 98 | 44.4 | 38.9 | 39 | viability, T/C [16]: 42.1%; viability, T/C [17]: 37.4%; viability, T/C [18]: 42.4%; viability, T/C [19]: 2.57%; viability, T/C [20]: 4.99%; viability, T/C [21]: 2.84%; viability, T/C [22]: 4.1%; viability, T/C [23]: 3.19%; viability, T/C [24]: 3.15%; viability, T/C [25]: 0.21%; viability, T/C [26]: 0.22%; viability, T/C [27]: 0.17%; viability, T/C [28]: 0.21%; viability, T/C [29]: 0.16%; viability, T/C [30]: 0.28%
